The target of one test is T1, human H1 receptor (Homo sapiens, UniProt P35367).
T1 construct: purchased Euroscreen SA, Brussels, Belgium ES-390-M; host or cells: recombinant CHO-1 cells (membranes)
T1 sequence (P35367 whole entry): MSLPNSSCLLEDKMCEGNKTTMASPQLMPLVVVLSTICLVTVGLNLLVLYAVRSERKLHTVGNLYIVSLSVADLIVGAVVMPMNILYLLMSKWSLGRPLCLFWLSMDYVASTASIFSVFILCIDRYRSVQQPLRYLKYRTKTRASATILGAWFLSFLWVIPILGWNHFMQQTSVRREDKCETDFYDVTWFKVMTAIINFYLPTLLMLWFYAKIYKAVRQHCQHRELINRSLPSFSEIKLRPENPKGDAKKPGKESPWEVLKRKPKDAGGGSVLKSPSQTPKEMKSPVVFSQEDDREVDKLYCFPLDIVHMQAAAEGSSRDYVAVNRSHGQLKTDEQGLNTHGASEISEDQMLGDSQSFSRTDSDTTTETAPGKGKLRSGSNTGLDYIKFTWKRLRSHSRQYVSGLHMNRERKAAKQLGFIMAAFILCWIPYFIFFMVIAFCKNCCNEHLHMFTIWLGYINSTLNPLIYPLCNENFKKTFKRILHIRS
Briefly: Histamine H1 receptor binding, [3H]-pyrilamine displacement. As to conditions: 1 nM [3H]-pyrilamine; membranes of recombinant CHO-1 cells expressing human H1 receptor; read-out: H1 antagonism pKi (converted).
For the compound `Cc1cc(Cl)ccc1OC1CCN(CC2CN(C(C(=O)O)c3ccccc3)CCO2)CC1` (single isomer, unassigned) [Example 8], the Ki is 126 nM.
On the same count and under the same terms, as for `Cc1c(Cl)ccc(OC2CCN(CC3CN(C(C(=O)O)c4ccccc4)CCO3)CC2)c1Cl` (single isomer, unassigned) [Example 9], the figure is 316 nM.
Same read-out and setting: with `Cc1c(Cl)ccc(OC2CCN(CC3CN(C(C(=O)O)c4ccccc4)CCO3)CC2)c1Cl` (single isomer, unassigned) [Example 10] the figure was 794 nM; with `Cc1c(Cl)ccc(OC2CCN(CC3CN(C(C(=O)O)c4ccccc4)CCO3)CC2)c1Cl` (single isomer, unassigned) [Example 12], 31.6 nM; with `O=C(O)c1ccccc1N1CCO[C@H](CN2CCC(Oc3ccc(Cl)c(Cl)c3)CC2)C1` [Example 15, 2-[(2R)-2-[[4-(3,4-dichlorophenoxy)-1-piperidinyl]methyl]-4-morpholinyl]-benzoic acid], 25.1 nM.
On the same count and under the same terms, as for `Cc1c(Cl)ccc(OC2CCN(CC3CN(C(C(=O)O)c4ccccc4)CCO3)CC2)c1Cl` (single isomer, unassigned) [Example 11], the figure is 251 nM.
Turning to `O=C(O)c1ccccc1CN1CCO[C@H](CN2CCC(Oc3ccc(Cl)c(Cl)c3)CC2)C1` [Example 13, 2-[[(2R)-2-[[4-(3,4-dichlorophenoxy)-1-piperidinyl]methyl]-4-morpholinyl]methyl]-benzoic acid], the Ki is 31.6 nM.
On the same count and under the same terms, with `Cc1cc(Cl)ccc1OC1CCN(CC2CN(C(C(=O)O)c3ccccc3)CCO2)CC1` (single isomer, unassigned) [Example 7] the figure was 631 nM.

Another test relates to Human eosinophils. Briefly: Human eosinophil chemotaxis. It counts as cell-based. As to conditions: compound concentration not given. Here is the method: Human Eosinophil Chemotaxis
Human eosinophils were isolated from EDTA anticoagulated peripheral blood as previously described (Hansel et al., J. Immunol. Methods, 1991, 145, 105-110). The cells were resuspended at 10×10^6 ml^−1 in RPMI containing 200 IU/ml penicillin, 200 μg/ml streptomycin sulphate and supplemented with 10% HIFCS, at room temperature.
Eosinophils (700 μl) were pre-incubated for 15 mins at 37° C. with 7 μl of either vehicle or compound (100× required final concentration in 10% DMSO). The chemotaxis plate (ChemoTx, 3 μm pore, Neuroprobe) was loaded by adding 28 μl of a concentration of eotaxin (0.1 to 100 nM) containing a concentration of a compound according to the Examples or solvent to the lower wells of the chemotaxis plate. The filter was then placed over the wells and 25 μl of eosinophil suspension were added to the top of the filter. The plate was incubated for 1 hr at 37° C. in a humidified incubator with a 95% air/5% CO2 atmosphere to allow chemotaxis.
The medium, containing cells that had not migrated, was carefully aspirated from above the filter and discarded. The filter was washed once with phosphate buffered saline (PBS) containing 5 mM EDTA to remove any adherent cells. […] The number of eosinophils migrating was quantified according to the method of Strath et al., J. Immunol. […]
On to `O=C(O)[C@@H](c1ccccc1)N1CCO[C@H](CN2CCC(Oc3ccc(Cl)c(Cl)c3)CC2)C1` [Example 2, (α^4R,2R)-2-[[4-(3,4-dichlorophenoxy)-1-piperidinyl]methyl]-α-phenylmorpholineacetic acid], for which the “% Inhibition (3 nM Human Eotaxin)” value was 96.4%.
On the same count and under the same terms, as for `O=C(O)C(c1ccccc1)N1CCCC(CN2CCC(Oc3ccc(Cl)c(Cl)c3)CC2)C1` (single isomer, unassigned) [Example 5, 3-[[4-(3,4-dichlorophenoxy)-1-piperidinyl]methyl]-alpha-phenyl-1-piperidineacetic acid], the figure is 96.9%.

(Values after patent US7517989B2, “Piperidine derivatives useful as modulators of chemokine receptor activity” (AstraZeneca AB, priority 2002, dated 2009).)
